From patent publication US10010585B2, “Methods of treating vestibular schwannoma and reducing hearing or neurite loss caused by vestibular schwannoma” (Massachusetts Eye and Ear Infirmary, priority 2014, dated 2018)
Several values for one entry are separate records, joined by “and”; a condition that tells them apart may be missing. Equal entries are not always repeated. Where two headings read alike, the source gives them in different places.

Legend:
[1] = system: NF2 VSs; conditions: NF2 VS patients; cited from earlier work
[2] = system: primary VS cells; experiment: TUNEL cell death assay in primary VS cultures; format: cell-based, human; conditions: 48 hours
Method: Rate of apoptosis in 6 VS cultures was assessed and correlated with tumor growth in vivo and tumor volume. […] Apoptosis was measured using terminal deoxynucleotidyl transferase dUTP nick end labeling (TUNEL, Roche Applied Sciences, NY) following manufacturer's instructions. Briefly, immunofluorescence protocol was followed as described under ‘Immunofluorescence,’ until fixations, then the cells were washed with PBS thrice and incubated in 1% Triton-X for 10 minutes on shaker. The cells were washed with PBS once and incubated in TUNEL mix for 1 hour at 37° C., then for 30 minutes at RT on shaker. The cells were then incubated in rhodamine phalloidin (Life Technologies, NY, 1:40) and Hoechst stain for 20 minutes, washed with PBS thrice and mounted onto slides for imaging. TUNEL and Hoechst stained nuclei were counted in >3 fields and the ratio of TUNEL positive to Hoechst positive nuclei was used to determine apoptosis rate in vitro. A positive control of 10 minutes-DNAse (Roche Applied Sciences, NY) treatment prior to TUNEL labeling was utilized.
(§1) For siRNA treatment, cultured primary VS cells or HEI-193 cells were placed in antibiotic and serum free media overnight. The next day, the cells were incubated with Life Technologies siRNAs targeting NF-κB genes RELA and NF-κB1, with control cells being treated with vehicle only (Lipofectamine RNAiMax), for 5 days. Some cultures were also incubated with a fluorescent random Oligo (Life Technologies) along with vehicle to assess transfection efficiency. siRNA experiments were performed in antibiotic and serum free media.
BAY11 or curcumin, diluted in 100% DMSO, were mixed to the accurate concentrations in warmed media and applied to the cultures (with DMSO concentration in media being 1% maximum), alongside a no-treatment control receiving media alone with appropriate corresponding DMSO levels.
After 48 hours of treatment, primary VS and Schwann cultures were fixed for BrdU staining, to visualize proliferation, or TUNEL staining, to visualize cell death.
After 48 hours of treatment with salicylates, primary VS and SC cultures were fixed for BrdU staining, to visualize proliferation, or TUNEL staining, to visualize cell death.

[3] = system: primary SCs; experiment: BrdU proliferation assay in primary Schwann cell cultures; format: cell-based, human; conditions: 48 hours
Method: (§2) Proliferation rate of 12 VS cultures was assessed and correlated with the tumor volume in the latest gadolinium enhanced T1-weighted MRI scan prior to surgical resection, and with tumor growth in vivo, measured as changes in the tumor's volume over time calculated from serial MRI scans. Tumor growth was standardized by dividing the growth rate by the initial tumor volume. Separate analyses were performed for solid tumors, which generally account for approximately 96% of VSs (Charabi et al., 1994), versus all studied tumors, which included 4 out of 13 total tumors with a visible cystic component, because cystic components could misrepresent true tumor volume (Charabi et al., 1994). To determine the level of cell proliferation in the cultures, Bromodeoxyuridine (BrdU) was added to the cells at a concentration of 10 μg/ml 20 hours before the cells were fixed. The cells were kept in the dark after the addition of BrdU Immunofluorescence protocol was followed as described under ‘Immunofluorescence,’ and cell and nuclear membranes were permeablized by incubation in 1% Triton-X for 10 minutes and by incubation in 2N Hydrochloric acid for 20 minutes, respectively, after fixation. Primary antibody against BrdU (AbD Serotec, NC, 1:200) and anti-rat IgG (Life Technologies, NY, 1:1000) were used. BrdU- and Hoechst-stained nuclei were counted in 3-5 fields and the ratio of BrdU positive to Hoechst positive nuclei was used to determine the proliferation rate in vitro.
(§3) Cultured human primary VS cells, primary SCs and HEI-193 cells were treated with NF-κB inhibitors BAY11-7082 (BAY11) or curcumin for 48 hours (Santa Cruz Biotechnology). BAY11 or curcumin, diluted in 100% DMSO, were mixed to the accurate concentrations in warmed media and applied to the cultures (with DMSO concentration in media being 1% maximum), alongside a no-treatment control receiving media alone with appropriate corresponding DMSO levels. Experiments were performed in media fortified with antibiotics and serum (same formulation as described in Example 1 for culturing cells).
(§4) After 48 hours of treatment, primary VS and Schwann cultures were fixed for BrdU staining, to visualize proliferation, or TUNEL staining, to visualize cell death. The same methodology as described in Example 1 was utilized. Cleaved caspase 3 staining, another apoptosis marker to reinforce findings using TUNEL, was conducted using an antibody against cleaved caspase 3 following the ‘immunofluorescence’ protocol outlined in Example 1.
(§5) The cultures were incubated with the drugs for 48 hours. To label proliferating cells, BrdU was added 20 hours before fixation. pH was measured in the media after drug addition to ensure no significant deviations.
(§6) After 48 hours of treatment with salicylates, primary VS and SC cultures were fixed for BrdU staining, to visualize proliferation, or TUNEL staining, to visualize cell death. The same methodology as described in Example 1 was utilized.

[4] = system: primary VS cells; experiment: BrdU proliferation assay in primary VS cultures; format: cell-based, human; conditions: 48 hours
Method: as §2, with “vitro. […]” for “vitro.”
as §3, §4, §5, §6
To understand cross-talk between HGF and VEGF-A pathway, cultured VS cells were incubated with Life Technologies silencer select siRNAs targeting VEGFA (s461) or MET (s8700). To understand whether HGF signaling contributed to VS proliferation, cultured VS cells were treated with MET inhibitor SU11274 (Sigma-Aldrich, MO, #S9820). Seventy-two hours after siRNA treatment or 12 hours after treatment with SU11274 (2 μM), cells were incubated with 10 μg/mL BrdU (Life Technologies, NY, # B23151) for 20 hours before fixation.

[5] = system: COX-2; conditions: 48 hours, VS culture media
Method: Prostaglandin (PTG) E2 was assayed in the media of VS cultures using the Prostaglandin E2 Parameter Assay Kit (R&D Systems, KGE004B). The media was collected after 48 hours of treatment from non-treated and treated cultured cells. Manufacturer's instructions were closely followed.
as §5

[6] = system: primary SCs; experiment: TUNEL cell death assay in primary Schwann cell cultures; format: cell-based, human; conditions: human, 48 h
Method: (§7) Rate of apoptosis in 6 VS cultures was assessed and correlated with tumor growth in vivo and tumor volume. Two out of the six VS had cystic components. Apoptosis was measured using terminal deoxynucleotidyl transferase dUTP nick end labeling (TUNEL, Roche Applied Sciences, NY) following manufacturer's instructions. Briefly, immunofluorescence protocol was followed as described under ‘Immunofluorescence,’ until fixations, then the cells were washed with PBS thrice and incubated in 1% Triton-X for 10 minutes on shaker. The cells were washed with PBS once and incubated in TUNEL mix for 1 hour at 37° C., then for 30 minutes at RT on shaker. The cells were then incubated in rhodamine phalloidin (Life Technologies, NY, 1:40) and Hoechst stain for 20 minutes, washed with PBS thrice and mounted onto slides for imaging. TUNEL and Hoechst stained nuclei were counted in >3 fields and the ratio of TUNEL positive to Hoechst positive nuclei was used to determine apoptosis rate in vitro. A positive control of 10 minutes-DNAse (Roche Applied Sciences, NY) treatment prior to TUNEL labeling was utilized.
as §3, §4

[7] = system: HEI-193 NF2 VS cell line; experiment: TUNEL cell death assay in HEI-193 cells; format: cell-based, human; conditions: 48 hours
Method: as §7
(§8) The same methodology as described in Example 1 was utilized for primary VS and SC cultures. Cultures were treated with NF-κB inhibitors approximately after 2 weeks of culturing. HEI-193 cell line was a gift from Dr. Giovannini at the House Ear Institute (Hung et al., 2002a).
as §1, §3, §4

[8] = system: HEI-193 NF2 VS cell line; experiment: BrdU proliferation assay in HEI-193 cells; format: cell-based, human; conditions: 48 hours
Method: as §2, §8, §1, §3, §4

Compound: CS(=O)(=O)CCNCc1ccc(-c2ccc3ncnc(Nc4ccc(OCc5cccc(F)c5)c(Cl)c4)c3c2)o1 [Lapatinib, lapatinib]
- patients with decrease in tumor size / volume [1]: approximately 24%
- patients with hearing improvement [1]: ~31%

Compound: O=C([O-])c1ccccc1O.[Na+] [NaSal, sodium salicylate]
- cell death rate ([2]; 5 mM): 3.3±2.3%
- proliferation, of the NT cells ([3]; 5 mM): 104.4±13.2%
- proliferation, of the NT cells ([3]; 10 mM): 64.9±18.9%
- proliferation, of the NT cells ([4]; 1 mM): 18% and 18.9±5.0%
- proliferation, of the NT cells ([4]; 5 mM): 25.4±11.1%
- proliferation, of the NT cells ([4]; 10 mM): 20.6±11.2%
- secreted PTG levels, of NT cells ([5]; 1 mM): 3.8%
- secreted PTG levels, of NT cells ([5]; 5 mM): 32.2%

Compound: COc1cc(/C=C/C(=O)CC(=O)/C=C/c2ccc(O)c(OC)c2)ccc1O [curcumin]
- cell death rate ([2]; 5 μM): 11.6±6.3%
- cell death rate ([2]; 20 μM): 1.8±1.0%
- cell death rate ([2]; 50 μM): 73.3±6.3%
- apoptosis / cell death rate ([6]; 5 μM): 1.3±0.3%
- cell death rate ([6]; 20 μM): 1.7±0.4%
- cell death rate ([6]; 50 μM): 52.2±14.9%
- normalized proliferation rate ([3]; 5 μM): 85.3±25.7%
- normalized proliferation rate ([3]; 20 μM): 31.0±18.3%
- normalized proliferation rate ([3]; 50 μM): 3.14%
- cell death rate ([7]; 5 μM): 0.3±0.1%
- cell death rate ([7]; 20 μM): 77.3±8.4%
- cell death rate ([7]; 50 μM): 97.8±1.5%
- proliferation, of the non-treated cells ([4]; 5 μM): 141.8%±95.2%
- proliferation, of the non-treated cells ([4]; 20 μM): 23.0±20.9%
- normalized proliferation rate ([8]; 5 μM): 95.0±1.6%
- normalized proliferation rate ([8]; 20 μM): 0.4±0.4%
- normalized proliferation rate ([8]; 50 μM): 2.3±2.3%

Compound: bevacizumab
- patients with decrease in tumor size / volume [1]: 55%
- patients with hearing improvement [1]: 57%
